Measurements reported in article PMC6557261 (Cell chemical biology, 2019).

Tests used:
[1] = biological target: T1, peroxiredoxin 2 (Prx2) (Homo sapiens, UniProt P32119); assay: glutamine synthetase protection assay with recombinant Prx2; format: biochemical
T1 sequence (P32119 2-198): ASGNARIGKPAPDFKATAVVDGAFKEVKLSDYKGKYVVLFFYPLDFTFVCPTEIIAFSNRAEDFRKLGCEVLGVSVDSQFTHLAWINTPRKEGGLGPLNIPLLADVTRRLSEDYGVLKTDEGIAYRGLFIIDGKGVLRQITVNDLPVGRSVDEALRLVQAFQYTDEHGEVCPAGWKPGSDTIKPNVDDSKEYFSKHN

[2] = biological target: T2, peroxiredoxin 1 (Prx1) (Homo sapiens, UniProt Q06830); assay: glutamine synthetase protection assay with recombinant Prx1; format: biochemical
T2 sequence (Q06830 2-199): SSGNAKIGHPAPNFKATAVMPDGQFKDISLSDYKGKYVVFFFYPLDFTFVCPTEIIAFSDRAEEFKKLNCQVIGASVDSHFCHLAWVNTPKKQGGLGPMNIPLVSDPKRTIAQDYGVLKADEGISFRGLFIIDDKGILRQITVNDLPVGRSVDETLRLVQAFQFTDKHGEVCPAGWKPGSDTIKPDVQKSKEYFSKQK

IC50 [1]: 4.2 µM | IC50 [2]: 0.2 µM
SMILES: CCC[C@H]1O[C@@H]2CC(=O)O[C@@H]2C2=C1C(=O)c1c(O)cccc1C2=O [FB, frenolicin B]
